Measured values: the supplement of paper PMC10733146

Experiments:
Assay in all cases: viability relative to DMSO control (fraction); higher = less drug effect (more viable cells)
Details in all cases: 48 h
[1] = test system: primary AML patient cells (S012)
Outline: (§1)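 Viability is given as CellTiter-Glo luminescence relative to the median of 16 inner DMSO wells. Fresh or cryopreserved primary mononuclear tumour cells from blood, bone marrow (both Ficoll-isolated) or processed lymph node were plated at 4 × 10^4 cells per well in 384-well plates against five pre-plated compound concentrations, one well each. Incubation lasted 48 h at 37 °C and 5% CO2 in RPMI-1640 with penicillin/streptomycin, L-glutamine and human serum.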

[2] = test system: primary AML patient cells (S002)
Outline: as §1

[3] = test system: primary AML patient cells (S079)
Outline: as §1

[4] = test system: primary MCL patient cells (S053)
Outline: as §1

[5] = test system: primary AML patient cells (S072)
Outline: as §1

[6] = test system: primary T-PLL patient cells (S008)
Outline: as §1

[7] = test system: primary AML patient cells (S017)
Outline: as §1

[8] = test system: primary BL patient cells (S005)
Outline: as §1

[9] = test system: primary AML patient cells (S081)
Outline: as §1

[10] = test system: primary MCL patient cells (S068)
Outline: as §1

[11] = test system: primary FL patient cells (S022)
Outline: as §1

[12] = test system: primary AML patient cells (S056)
Outline: as §1

[13] = test system: primary AML patient cells (S009)
Outline: as §1

[14] = test system: primary ALL patient cells (S048)
Outline: as §1

[15] = test system: primary AML patient cells (S055)
Outline: as §1

[16] = test system: primary AML patient cells (S006)
Outline: as §1

[17] = test system: primary AML patient cells (S025)
Outline: as §1

[18] = test system: primary CLL patient cells (S043)
Outline: as §1

[19] = test system: primary AML patient cells (S021)
Outline: as §1

[20] = test system: primary MCL patient cells (S063)
Outline: as §1

In the case of `Nc1ccn([C@@H]2O[C@H](CO)[C@@H](O)[C@@H]2O)c(=O)n1` [Cytarabine], the viability ([1]; 0.032 µM) is reported as 0.99, the viability ([1]; 0.16 µM) is reported as 0.927 and the viability ([1]; 0.8 µM) is reported as 0.985. It also gave a viability ([1]; 4 µM) of 0.935, a viability ([1]; 20 µM) of 0.602 and a viability ([2]; 0.032 µM) of 1.04. For the same molecule, the viability ([2]; 0.16 µM) was 0.899, the viability ([2]; 0.8 µM) was 0.607 and the viability ([2]; 4 µM) was 0.317. The viability ([2]; 20 µM) was 0.26, the viability ([3]; 0.032 µM) was 1.07 and the viability ([3]; 0.16 µM) was 1.01. For the same molecule, the viability ([3]; 0.8 µM) was 0.781, the viability ([3]; 4 µM) was 0.297 and the viability ([3]; 20 µM) was 0.0864. For the same molecule, the viability ([4]; 0.032 µM) was 1.01, the viability ([4]; 0.16 µM) was 0.754 and the viability ([4]; 0.8 µM) was 0.327. The viability ([4]; 4 µM) was 0.195, the viability ([4]; 20 µM) was 0.136 and the viability ([5]; 0.032 µM) was 1.14. For the same molecule, the viability ([5]; 0.16 µM) was 1.06, the viability ([5]; 0.8 µM) was 0.995 and the viability ([5]; 4 µM) was 0.774. It also gave a viability ([5]; 20 µM) of 0.458, a viability ([6]; 0.032 µM) of 1.05 and a viability ([6]; 0.16 µM) of 0.968. The viability ([6]; 0.8 µM) was 0.876, the viability ([6]; 4 µM) was 0.434 and the viability ([6]; 20 µM) was 0.209. The viability ([7]; 0.032 µM) was 1.11, the viability ([7]; 0.16 µM) was 1.07 and the viability ([7]; 0.8 µM) was 1.15. It also gave a viability ([7]; 4 µM) of 0.665, a viability ([7]; 20 µM) of 0.303 and a viability ([8]; 0.032 µM) of 1.03. For the same molecule, the viability ([8]; 0.16 µM) was 1.02, the viability ([8]; 0.8 µM) was 0.98 and the viability ([8]; 4 µM) was 0.969. For the same molecule, the viability ([8]; 20 µM) was 0.893, the viability ([9]; 0.032 µM) was 1.1 and the viability ([9]; 0.16 µM) was 1.07. For the same molecule, the viability ([9]; 0.8 µM) was 1.14, the viability ([9]; 4 µM) was 0.884 and the viability ([9]; 20 µM) was 0.4. For the same molecule, the viability ([10]; 0.032 µM) was 1.1, the viability ([10]; 0.16 µM) was 1.01 and the viability ([10]; 0.8 µM) was 0.807. It also gave a viability ([10]; 4 µM) of 0.38, a viability ([10]; 20 µM) of 0.209 and a viability ([11]; 0.032 µM) of 1.17. For the same molecule, the viability ([11]; 0.16 µM) was 1.04, the viability ([11]; 0.8 µM) was 1.09 and the viability ([11]; 4 µM) was 0.93. The viability ([11]; 20 µM) was 0.589, the viability ([12]; 0.032 µM) was 1.05 and the viability ([12]; 0.16 µM) was 1. The viability ([12]; 0.8 µM) was 0.719, the viability ([12]; 4 µM) was 0.177 and the viability ([12]; 20 µM) was 0.0767. For the same molecule, the viability ([13]; 0.032 µM) was 1.04, the viability ([13]; 0.16 µM) was 0.96 and the viability ([13]; 0.8 µM) was 0.82. It also gave a viability ([13]; 4 µM) of 0.521, a viability ([13]; 20 µM) of 0.383 and a viability ([14]; 0.032 µM) of 0.974. The viability ([14]; 0.16 µM) was 0.862, the viability ([14]; 0.8 µM) was 0.561 and the viability ([14]; 4 µM) was 0.154. For the same molecule, the viability ([14]; 20 µM) was 0.0402, the viability ([15]; 0.032 µM) was 1.02 and the viability ([15]; 0.16 µM) was 1.08. For the same molecule, the viability ([15]; 0.8 µM) was 0.818, the viability ([15]; 4 µM) was 0.346 and the viability ([15]; 20 µM) was 0.189. It also gave a viability ([16]; 0.032 µM) of 1.09, a viability ([16]; 0.16 µM) of 0.996 and a viability ([16]; 0.8 µM) of 0.773. It also gave a viability ([16]; 4 µM) of 0.147, a viability ([16]; 20 µM) of 0.0817 and a viability ([17]; 0.032 µM) of 1.02. The viability ([17]; 0.16 µM) was 0.877, the viability ([17]; 0.8 µM) was 0.649 and the viability ([17]; 4 µM) was 0.324. For the same molecule, the viability ([17]; 20 µM) was 0.112, the viability ([18]; 0.032 µM) was 1.1 and the viability ([18]; 0.16 µM) was 0.975. The viability ([18]; 0.8 µM) was 0.707, the viability ([18]; 4 µM) was 0.236 and the viability ([18]; 20 µM) was 0.0952. For the same molecule, the viability ([19]; 0.032 µM) was 1.03, the viability ([19]; 0.16 µM) was 1.1 and the viability ([19]; 0.8 µM) was 0.882. The viability ([19]; 4 µM) was 0.849, the viability ([19]; 20 µM) was 0.419 and the viability ([20]; 0.032 µM) was 1.11. For the same molecule, the viability ([20]; 0.16 µM) was 1.08, the viability ([20]; 0.8 µM) was 0.957 and the viability ([20]; 4 µM) was 0.489. It also gave a viability ([20]; 20 µM) of 0.238.
